Assay results published in US20140023611A1 (priority 2010, published 2014).
pIC50: −log10 of the molar value.

target: T1, rat NaP2b (SLC34A2) (Rattus norvegicus, UniProt Q9JJ09); assay: Inhibition of NaP2b-mediated Pi (33P) uptake in transfected HEK293 cells, rat NaP2b; type: cell-based; conditions: 33P Pi uptake, 0.1 mM phosphate, value given as pIC50 range
T1 construct: host or cells: HEK293
T1 sequence (Q9JJ09 1-695): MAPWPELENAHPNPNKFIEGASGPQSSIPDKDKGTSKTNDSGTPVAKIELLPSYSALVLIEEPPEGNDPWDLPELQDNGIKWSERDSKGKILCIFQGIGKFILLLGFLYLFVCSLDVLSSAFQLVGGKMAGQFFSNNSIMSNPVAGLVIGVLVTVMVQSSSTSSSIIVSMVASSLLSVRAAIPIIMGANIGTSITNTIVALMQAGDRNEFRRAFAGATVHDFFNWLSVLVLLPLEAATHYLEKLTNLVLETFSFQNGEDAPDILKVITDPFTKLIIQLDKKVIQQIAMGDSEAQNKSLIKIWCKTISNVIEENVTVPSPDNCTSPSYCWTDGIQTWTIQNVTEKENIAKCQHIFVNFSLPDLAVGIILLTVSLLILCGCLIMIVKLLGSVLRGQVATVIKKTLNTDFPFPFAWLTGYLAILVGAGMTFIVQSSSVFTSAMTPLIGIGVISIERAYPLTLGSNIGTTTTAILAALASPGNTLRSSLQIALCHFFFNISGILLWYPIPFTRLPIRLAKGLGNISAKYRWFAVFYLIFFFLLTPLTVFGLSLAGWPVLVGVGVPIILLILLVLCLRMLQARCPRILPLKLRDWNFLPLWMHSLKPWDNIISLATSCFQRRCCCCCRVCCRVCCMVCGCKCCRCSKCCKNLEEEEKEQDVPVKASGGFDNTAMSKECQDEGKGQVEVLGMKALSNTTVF
Protocol: HEK293 cells were obtained from the American Type Culture collection and propagated per their instructions. […] The sequence of the human protein was mutated to insert a threonine after residue 37, and to introduce a N39D mutation.
Cells were seeded into 96-well plates at 25,000 cells/well and cultured overnight. Lipofectamine 2000 (Invitrogen) was used to introduce the NaP2b cDNA, and the cells were allowed to approach confluence during a second overnight incubation. […] Each compound was tested at twelve concentrations ranging from 0.1 nM to 30 uM. Assays were run in duplicate.
Cells were lysed by addition of 20 μL 0.1% Tween 80 followed by 100 μL scintillation fluid, and counted using a TopCount (Perkin Elmer).
pIC50 (the negative log of the IC50) values of the test compounds were calculated using GraphPad Prism.

SMILES | pIC50
COCCNC(=O)C1CCCN(Cc2cccc(C(=O)Nc3ccc(N4CCCCC4)cc3-c3cc(C(=O)NCc4cccc(C(F)(F)F)c4)ccn3)c2)C1 (stereo in doubt) [Example 12.2, (R)-2-(2-(3-((3-((2-Methoxyethyl)carbamoyl)piperidin-1-yl)methyl)benzamido)-5-(piperidin-1-yl)phenyl)-N-(3-(trifluoromethyl)benzyl)isonicotinamide] | 4.50 to 5.00
O=C(NCc1cccc(C(F)(F)F)c1)c1ccnc(-c2cc(N3CCCCC3)ccc2NC(=O)c2cccc(C(=O)N(CCN3CCOCC3)C3CC3)c2)c1 [Example 4.11, N1-Cyclopropyl-N1-(2-morpholinoethyl)-N3-(4-(piperidin-1-yl)-2-(4-((3-(trifluoromethyl)benzyl)carbamoyl)pyridin-2-yl)phenyl)isophthalamide] | 5.10 to 6.00
O=C(NCc1cccc(C(F)(F)F)c1)c1ccnc(-c2cc(N3CCCCC3)ccc2NC(=O)c2cccc(C(=O)N3CCC(CO)CC3)c2)c1 [Example 4.30] | 5.10 to 6.00
CCN(CC)c1ccc(NC(=O)c2cccc(C(=O)N(C)CCN(C)CCOCCOCCOCCNC(=O)c3cscn3)c2)c(-c2cc(C(=O)N[C@H]3CCCc4ccccc43)ccn2)c1 [Example 344, (S)—N-(4-(Diethylamino)-2-(4-(1,2,3,4-tetrahydronaphthalen-1-ylcarbamoyl)pyridin-2-yl)phenyl)-N^3-methyl-N^3-(14-methyl-1-oxo-1-(thiazol-4-yl)-5,8,11-trioxa-2,14-diazahexadecan-16-yl)isophthalamide] | > 6.00
CN1CCN(C(=O)c2cccc(SCc3cccc(C(=O)Nc4ccc(N5CCCCC5)cc4-c4cc(C(=O)NCc5cccc(C(F)(F)F)c5)ccn4)c3)c2)CC1 [Example 10.3] | 4.50 to 5.00
O=C(O)CCSCc1cccc(C(=O)Nc2ccc(N3CCCCC3)cc2-c2cc(C(=O)NCc3ccc(Cl)c(C(F)(F)F)c3)ccn2)c1 [Example 1.33] | 5.10 to 6.00
O=C(O)CCSCc1cccc(C(=O)Nc2ccc(N3CCCCC3)cc2-c2cc(C(=O)NC(c3ccccc3)c3ccccc3)ccn2)c1 [Example 1.36] | 5.10 to 6.00
O=C(CCSCc1cccc(C(=O)Nc2ccc(N3CCCCC3)cc2-c2cc(C(=O)NCc3cccc(C(F)(F)F)c3)ccn2)c1)NCCN1CCOCC1 [Example 4.16, 2-(2-(3-(((3-((2-Morpholinoethyl)amino)-3-oxopropyl)thio)methyl)benzamido)-5-(piperidin-1-yl)phenyl)-N-(3-(trifluoromethyl)benzyl)isonicotinamide] | 4.50 to 5.00
O=C(O)CCSCc1cccc(C(=O)Nc2ccc(N3CCCCC3)cc2-c2cc(C(=O)NCc3cccc4ccccc34)ccn2)c1 [Example 1.12] | 5.10 to 6.00
O=C(O)CCSCc1cccc(C(=O)Nc2ccc(N3CCCCC3)cc2-c2cc(C(=O)Nc3nc4ccccc4[nH]3)ccn2)c1 [Example 1.19] | 4.50 to 5.00
CCN(CC)c1ccc(NC(=O)c2cccc(CCCOCCOCCOCCOCCNC(=O)c3cscn3)c2)c(-c2cc(C(=O)N[C@H]3CCCc4ccccc43)ccn2)c1 [Example 326] | > 6.00
CCCCCCCNC(=O)c1ccnc(-c2cc(N3CCCCC3)ccc2NC(=O)c2cccc(CSCCC(=O)O)c2)c1 [Example 1.6] | 5.10 to 6.00
CN(Cc1ncc[nH]1)C(=O)c1cccc(C(=O)Nc2ccc(N3CCCCC3)cc2-c2cc(C(=O)NCc3cccc(C(F)(F)F)c3)ccn2)c1 [Example 4.24] | 5.10 to 6.00
CCN(CC)c1ccc(NC(=O)c2cccc(C(=O)N(C)CCN3CCCN(C(=O)CCOCCOCCOCCOCCOCCOCCOCCOC)CC3)c2)c(-c2cc(C(=O)N[C@H]3CCCc4ccccc43)ccn2)c1 [Example 197, (S)—N^1-(2-(4-(2,5,8,11,14,17,20,23-octaoxahexacosan-26-oyl)-1,4-diazepan-1-yl)ethyl)-N^3-(4-(diethylamino)-2-(4-((1,2,3,4-tetrahydronaphthalen-1-yl)carbamoyl)pyridin-2-yl)phenyl)-N^1-methylisophthalamide] | 5.10 to 6.00
O=C(NCc1cccc(C(F)(F)F)c1)c1ccnc(-c2cc(N3CCCCC3)ccc2NC(=O)c2cccc(CSCCCS(=O)(=O)O)c2)c1 [Example 91] | 4.50 to 5.00
CC(=O)N1CCCN(Cc2cccc(C(=O)Nc3ccc(N4CCCCC4)cc3-c3cc(C(=O)NCc4cccc(C(F)(F)F)c4)ccn3)n2)CC1 [Example 59, 6-((4-Acetyl-1,4-diazepan-1-yl)methyl)-N-(4-(piperidin-1-yl)-2-(4-((3-(trifluoromethyl)benzyl)carbamoyl)pyridin-2-yl)phenyl)picolinamide] | 5.10 to 6.00
O=C(O)CCc1ccc(SCc2cccc(C(=O)Nc3ccc(N4CCCCC4)cc3-c3cc(C(=O)NCc4cccc(C(F)(F)F)c4)ccn3)c2)cc1 [Example 8.8] | > 6.00
CN(CCOCCO)C(=O)c1cccc(C(=O)Nc2ccc(N3CCCCC3)cc2-c2cc(C(=O)NCc3cccc(C(F)(F)F)c3)ccn2)c1 [Example 4.3, N1-(2-(2-Hydroxyethoxy)ethyl)-N1-methyl-N3-(4-(piperidin-1-yl)-2-(4-((3-(trifluoromethyl)benzyl)carbamoyl)pyridin-2-yl)phenyl)isophthalamide] | 5.10 to 6.00
CN(CCN1CCOCC1)C(=O)Nc1cccc(C(=O)Nc2ccc(N3CCCCC3)cc2-c2cc(C(=O)N[C@H]3CCCc4ccccc43)ccn2)c1 [Example 245, (S)-2-(2-(3-(3-methyl-3-(2-morpholinoethyl)ureido)benzamido)-5-(piperidin-1-yl)phenyl)-N-(1,2,3,4-tetrahydronaphthalen-1-yl)isonicotinamide] | 4.50 to 5.00
COc1ccc(CNC(=O)c2ccnc(-c3cc(N4CCCCC4)ccc3NC(=O)c3cccc(CSCCC(=O)O)c3)c2)cc1C(F)(F)F [Example 1.27] | 4.50 to 5.00
CN(C)CCC#Cc1cccc(C(=O)Nc2ccc(Cl)cc2-c2cc(NCc3cccc(C(F)(F)F)c3)ncn2)c1 [Example 67, N-(4-Chloro-2-(6-(3-(trifluoromethyl)benzylamino)pyrimidin-4-yl)phenyl)-3-(4-(dimethylamino)but-1-ynyl)benzamide 2,2,2-trifluoroacetate] | 4.50 to 5.00
CC(C)(C)OC(=O)NC(CSCc1cccc(C(=O)Nc2ccc(N3CCCCC3)cc2-c2cc(C(=O)NCc3cccc(C(F)(F)F)c3)ccn2)c1)C(=O)O (centres unmarked) [Example 8.10] | 4.50 to 5.00
COc1cc(C(F)(F)F)ccc1CNC(=O)c1ccnc(-c2cc(N3CCCCC3)ccc2NC(=O)c2cccc(C(=O)N(C)CCN3CCOCC3)c2)c1 [Example 121, N1-(2-(4-((2-methoxy-4-(trifluoromethyl)benzyl)carbamoyl)pyridin-2-yl)-4-(piperidin-1-yl)phenyl)-N3-methyl-N3-(2-morpholinoethyl)isophthalamide] | 5.10 to 6.00
CC(=O)N1CCN(CCN(C)Cc2cccc(C(=O)Nc3ccc(N4CCCCC4)cc3-c3cc(C(=O)NCc4cccc(C(F)(F)F)c4)ccn3)n2)CC1 [Example 60, 6-(((2-(4-Acetylpiperazin-1-yl)ethyl)(methyl)amino)methyl)-N-(4-(piperidin-1-yl)-2-(4-((3-(trifluoromethyl)benzyl)carbamoyl)pyridin-2-yl)phenyl)picolinamide] | 4.50 to 5.00
CN(CCN1CCOCC1)C(=O)c1cccc(C(=O)Nc2ccc(OC3CCCC3)cc2-c2cc(C(=O)N[C@H]3CCCc4ccccc43)ccn2)c1 [Example 133, (S)—N^1-(4-(cyclopentyloxy)-2-(4-((1,2,3,4-tetrahydronaphthalen-1-yl)carbamoyl)pyridin-2-yl)phenyl)-N^3-methyl-N^3-(2-morpholinoethyl)isophthalamide] | 5.10 to 6.00
O=C(O)CCSCc1cccc(C(=O)Nc2ccc(N3CCCCC3)cc2-c2cc(C(=O)NCc3cc(F)cc(C(F)(F)F)c3)ccn2)c1 [Example 1.29] | 5.10 to 6.00
CC(=O)NC1CCN(C(=O)c2cccc(C(=O)Nc3ccc(N4CCCCC4)cc3-c3cc(C(=O)NCc4cccc(C(F)(F)F)c4)ccn3)c2)CC1 [Example 4.7, 2-(2-(3-(4-Acetamidopiperidine-1-carbonyl)benzamido)-5-(piperidin-1-yl)phenyl)-N-(3-(trifluoromethyl)benzyl)isonicotinamide] | 4.50 to 5.00
Cc1ccc(Nc2ccnc(-c3cc(N4CCCCC4)ccc3NC(=O)c3cccc(CSCCC(=O)O)c3)c2)cc1C [Example 71, 3-((3-((2-(4-((3,4-Dimethylphenyl)amino)pyridin-2-yl)-4-(piperidin-1-yl)phenyl)carbamoyl)benzyl)thio)propanoic acid] | 4.50 to 5.00
O=C(O)CCSCc1cccc(C(=O)Nc2ccc(N3CCCCC3)cc2-c2cc(C(=O)NCc3ccc(OCc4ccccc4)cc3)ccn2)c1 [Example 1.39] | 5.10 to 6.00
